Consider four compounds from patent US11215619B2 (priority 2019, dated 2022).

Series [1] is described as follows: Solvatochromic studies of 4QI. The class given is physicochemical. As for the experimental part: (§1) All fluorescence excitation and emission measurements were made at 25.00° C. using a PTI Alphascan-2 spectrofluorometer equipped with a 1×4 Multicell Block Peltier and temperature controller, with baseline correction and variable slit widths as specified. All fluorescence excitation spectra were recorded at the maximum emission wavelength of the fluorophore and emission spectra were recorded at the maximum excitation wavelength.
Solvatochromatic studies were completed using quartz cells (Hellma 101-QS) with a light path of 10 mm. A 100 μM stock solution of 4QI was prepared in reagent grade DMSO. Using the stock solution, 3 μM solutions of 4QI were prepared in a series of solvents: MQ water, methanol, acetonitrile, THF, chloroform and isopropyl alcohol. After mixing by inversion (×20), emission and excitation spectra for each sample were recorded as described using slit widths of 5 nm.

Series [2] concerns the target OTABA. The experiment in a line: Dye displacement from OTABA mediated by OTA (label-free aptasensor). The following applies: for Kd: apparent, OTA binding to OTABA from dye displacement, 0.5 μM OTABA; for % D (6 → 0.5 μM): OTA up to 1.5 equiv. The class given is binding. The protocol:
For dye displacement from the aptamer mediated by OTA, a 2:1 dye:OTABA mixture (12:6 μM) was treated with aliquots of OTA up to 1.5 equiv. (9 μM). Under these conditions, ThT was poorly displaced from the aptamer, displaying only a 6% drop in emission intensity (FIG. 17d). […] Significant differences in the ability of OTA to displace the dyes from the aptamer was not anticipated. Furthermore, given the relative binding affinities of the dyes for OTABA, ThT was expected to display the greatest ease of displacement. Clearly the ability of OTA to displace the dyes from the aptamer had little to do with the dye aptamer binding affinity.
To determine the analytical potential of the dye displacement assay, the 2:1 dye:OTABA starting mixture was optimized and the OTA titrations were repeated using 0.5 μM OTABA in the presence of 1 μM dye. […] Additions of OTA up to 1.5 equiv (0.75 μM) caused 93% BtC displacement, as evidenced by the loss of emission intensity for the aptamer-bound BtC at 640 nm, coupled with the loss of the ET band at 256 nm for BtC stacking with the G-tetrad of the folded aptamer.
From the OTA titrations involving hemicyanine dye displacement (4QI and BtC), a limit of detection (LoD)˜15 nM (6 ng/mL) and a limit of quantification (LoQ)˜45-47 nM (˜18 ng/mL) were determined (R^2=0.95-0.99). In contrast, an LoD of 73 nM (29 ng/mL) and LoQ of 222 nM (89 ng/mL, R^2=0.85) was determined from the ThT displacement data.

Series [3] is described as follows: Photophysical characterization of 4QI (fluorescence spectrometry). In kind it is physicochemical. The protocol: as §1
4QI-alcohol and 4QI-DMT contain the same fluorophore such that characterization of 4QI-alcohol is representative of the solvatochromic and photophysical capacity of the 4QI fluorophore. […] Excitation and emission in the visible region as opposed to the ultraviolet (UV) region is favorable because the dye can be excited using a visible lamp rather than a more expensive UV lamp.

A short description of series [4]: Kinetic studies of 4QI under oligonucleotide deprotection conditions. The class given is physicochemical. As for the experimental part:
Recall that standard conditions for oligonucleotide deprotection involve heating to 55° C. for 4 h in ammonium hydroxide (Table 3). […] Therefore, all mTBA were deprotected under UltraMild conditions.

Series [5] is described as follows: Photostability of 4QI within a DNA helix. In kind it is physicochemical. The following applies: 6-month period, aqueous buffer pH 7.4. From the text:
The 4QI dye was attached to a glycerol backbone and converted into a phosphoramidite for site-specific incorporation into DNA using solid phase DNA synthesis.

Series [6] has as its target OTABA. The experiment in a line: Fluorescent titration of dye binding to OTABA. The following applies: for Kd: apparent, dye binding to OTABA; for λem / λex: dye bound to OTABA; for λex (value in parentheses): footnote not given, line below the bound value. The protocol: Dye interaction with OTABA and subsequent displacement by OTA was initially investigated using fluorescence spectroscopy (FIG. 17) in the previously optimized OTA binding buffer. (Fadock et al., 2017) Additions of OTABA (up to 1.5 equiv.) to the dye (6 μM) caused dose-dependent increases in ligand emission at 488 nm for ThT (240-fold increase at 1.5 equiv. OTABA, FIG. 17a), 605 nm for the 4QI (42-fold, FIG. 17b) and 640 nm for BtC (8-fold, FIG. 17c).

Series [7] is classed as physicochemical. The conditions noted are these: 6 μM oligonucleotide, 10% K+ buffer.
The next series has as its target thrombin (Homo sapiens, UniProt P00734). The conditions noted are these: isothermal titration calorimetry (Pagano et al. 2008); cited from earlier work. For orientation: In ITC the heat of successive injections is recorded.
[8] abbreviates: first value: 6 μM OTABA, 12 μM dye.
[9] abbreviates: second value: 0.5 μM OTABA, 1 μM dye.

Regarding `C[n+]1ccc(/C=C/c2cn(CCCO)c3ccccc23)c2ccccc21.[I-]` [4QI, 4-(2-(1-(3-hydroxypropyl)-1H-indol-3-yl)vinyl)-1-methylquinolin-1-ium iodide], the λex max in series [1] (Acetonitrile) is on record as 494 nm; in series [1] (H2O), 486 nm; in series [1] (Isopropyl-alcohol) it was 523 nm; in series [1] (Methanol), 512 nm; in series [1] (THF), 514 nm. In addition, the Kd on OTABA [2] (1 μM dye) was 356 nM; at OTABA [6], 2500 nM. For the same compound, the “% D (6 → 0.5 μM)” value with OTABA [2] (setting [8]) was 28%; in the series with OTABA [2] (setting [9]), 47%. Further, the Stokes shift in series [3] is listed as 104 nm. Also, in series [3], the extinction coefficient is recorded as 26,660 L/(mol·cm). In series [3], the stokes shift is 90 nm. In addition, the fluorescence emission in series [3] (following excitation at 500 nm) is listed as 590 nm. Also, in series [3] (free in H2O), the λem maxima was determined as 580 nm. In addition, the λex maxima in series [3] (free in H2O) is 520 nm. For the same compound, the results for the “time to complete bleaching of 4QI absorbance” value in series [4] (Standard deprotection conditions) and in series [4] (UltraFast deprotection conditions) were at most 6.5 h and at most 0.05 h, respectively. Besides, the “decrease of fluorescence intensity” value in series [4] (UltraMild conditions, 17-hour kinetic study) stood at 11%. Moreover, in series [5], the photostability entry was “photostable”. Also, the λem in the series on OTABA [6] worked out at 605 nm. The same compound came in with a λex in the series with OTABA [6] of 532 nm. In addition, in the series on OTABA [6], the “λex (value in parentheses)” value is on record as “(493) nm”.
For `CCN(CC)c1ccc2cc(/C=C/c3sc4ccccc4[n+]3C)c(=O)oc2c1` [BtC], at OTABA [2] (1 μM dye), the Kd came to 112 ± 8.9 nM. In the series with OTABA [2] (setting [8]), the “% D (6 → 0.5 μM)” value amounted to 52%. Further, in the series with OTABA [2] (setting [9]), the “% D (6 → 0.5 μM)” value was found to be 93%. At OTABA [6], the Kd is 3200 nM, the λem is on record as 640 nm, the λex was determined as 580 nm and the “λex (value in parentheses)” value was “(549) nm”.
As for `Cc1ccc2c(c1)sc(-c1ccc(N(C)C)cc1)[n+]2C` [ThT, Thioflavin T], the Kd on OTABA [2] (1 μM dye) was 292 nM. The “% D (6 → 0.5 μM)” value in the series on OTABA [2] (setting [8]) amounted to 6%. In addition, in the series with OTABA [2] (setting [9]), the “% D (6 → 0.5 μM)” value amounted to 23%. Moreover, at OTABA [6], the Kd was 10900 nM, the λem is listed as 488 nm, the λex is reported as 448 nm and the “λex (value in parentheses)” value is “(412) nm”.
Take “TBA-15: Native thrombin binding aptamer 5′-GGTTGGTGTGGTTGG”: in series [7], the “Tm GQ” value turned out to be 53.5 °C. Also, the Kd in the series with thrombin is 330 nM.
